We go through one molecule from patent US20080009548A1, “AMBROXOL FOR THE TREATMENT OF ACUTE PAIN” (priority 2003, published 2008).

Structures are written as SMILES.

Experiment [1] concerns the target tetrodotoxin-resistant sodium channels (Rattus norvegicus, UniProt Q62968). The experiment is classed as cell-based. To be noted: neuron cultures from the posterior root ganglia of adult rats; read-out: half-maximal inhibition of tetrodotoxin-resistant sodium channels.
Experiment [2] has as its system Tetrodotoxin-sensitive currents. The experiment is classed as cell-based, rat. To be noted: read-out: IC50 of tetrodotoxin-sensitive currents; neuron cultures from the posterior root ganglia of adult rats.
Experiment [3] has as its system voltage-dependent calcium channels. In words: Patch-Clamp measurement of current through voltage-dependent calcium channels in posterior root ganglia neurons. The experiment is classed as cell-based. Particulars: neuron cultures from adult rat posterior root ganglia; voltage jumps from −80 mV to 0 mV for 50 ms. The source says: Voltage-dependent calcium channels play an important role in the transmission of pain-related excitation in the nervous system. The blocking of these channels has been described as being helpful for the treatment of acute pain (KA Sluka (1998), JPET 287, 232-237; J Devulder et al. (2001), J Pain Sympt Management 22, 622-626). […] Neurons were dissected from posterior root ganglia of adult rats and placed in short-term culture. The cells were investigated electrophysiologically by the Patch-Clamp method (voltage terminal), and the flow of current through voltage-dependent calcium channels was measured after electrical stimulation (voltage jumps from −80 mV to 0 mV holding potential for 50 ms) in the presence and absence of ambroxol.
(In general: Patch clamp records ionic current or voltage across a cell membrane.)

Another experiment addresses T1, human GluR1/2 receptors (Homo sapiens, UniProt P42261+P42262).
T1 construct: expressed in transfected cells; host or cells: HEK 293
The experiment in a line: Patch-Clamp measurement of glutamate-induced membrane currents in HEK 293 cells expressing GluR1/2 receptors. The experiment is classed as cell-based. Particulars: HEK 293 cells expressing human GluR1/2; 1 mM glutamate for 1 s, holding potential −80 mV. As to the method:
Ionotropic glutamate receptors of the AMPA sub-type are also essential for the excitatory neurotransmission. […] The blocking of AMPA receptors has been described as being helpful for the treatment of acute pain (e.g., ji Szekely et al. (1997), EJP 336, 143-154). HEK 293 cells which expressed functionally recombinant human GluR1/2 receptors were electrophysiologically investigated by the Patch-Clamp method ([…]). The administration of 1 mM glutamate (for 1 s at a holding potential of −80 mV) induced membrane currents which were inhibited by the joint administration of ambroxol.

T1 sequence (P42261 19-906): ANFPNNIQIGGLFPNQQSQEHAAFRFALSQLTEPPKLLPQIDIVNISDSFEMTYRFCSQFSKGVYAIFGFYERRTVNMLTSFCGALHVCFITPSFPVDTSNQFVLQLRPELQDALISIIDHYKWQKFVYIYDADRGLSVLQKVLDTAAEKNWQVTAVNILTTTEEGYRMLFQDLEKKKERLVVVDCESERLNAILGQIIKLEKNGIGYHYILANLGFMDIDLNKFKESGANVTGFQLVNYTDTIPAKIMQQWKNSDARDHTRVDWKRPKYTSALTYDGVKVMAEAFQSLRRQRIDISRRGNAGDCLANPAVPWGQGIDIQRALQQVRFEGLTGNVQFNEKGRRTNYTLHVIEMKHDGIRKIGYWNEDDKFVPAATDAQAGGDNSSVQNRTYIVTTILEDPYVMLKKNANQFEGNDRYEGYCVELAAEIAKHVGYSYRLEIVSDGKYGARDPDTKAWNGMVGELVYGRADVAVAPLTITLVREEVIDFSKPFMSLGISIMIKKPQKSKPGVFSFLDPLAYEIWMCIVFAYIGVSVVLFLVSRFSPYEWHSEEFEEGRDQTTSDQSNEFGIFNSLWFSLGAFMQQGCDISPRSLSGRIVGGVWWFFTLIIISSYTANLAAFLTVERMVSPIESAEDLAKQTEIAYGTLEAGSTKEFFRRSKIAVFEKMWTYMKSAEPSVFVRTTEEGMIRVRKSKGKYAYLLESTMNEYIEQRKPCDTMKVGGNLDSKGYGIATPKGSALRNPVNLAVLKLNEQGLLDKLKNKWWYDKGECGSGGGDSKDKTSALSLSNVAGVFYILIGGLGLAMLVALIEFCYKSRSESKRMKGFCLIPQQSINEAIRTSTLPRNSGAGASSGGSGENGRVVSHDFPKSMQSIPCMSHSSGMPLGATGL
T1 sequence (P42262 22-883 limits assumed): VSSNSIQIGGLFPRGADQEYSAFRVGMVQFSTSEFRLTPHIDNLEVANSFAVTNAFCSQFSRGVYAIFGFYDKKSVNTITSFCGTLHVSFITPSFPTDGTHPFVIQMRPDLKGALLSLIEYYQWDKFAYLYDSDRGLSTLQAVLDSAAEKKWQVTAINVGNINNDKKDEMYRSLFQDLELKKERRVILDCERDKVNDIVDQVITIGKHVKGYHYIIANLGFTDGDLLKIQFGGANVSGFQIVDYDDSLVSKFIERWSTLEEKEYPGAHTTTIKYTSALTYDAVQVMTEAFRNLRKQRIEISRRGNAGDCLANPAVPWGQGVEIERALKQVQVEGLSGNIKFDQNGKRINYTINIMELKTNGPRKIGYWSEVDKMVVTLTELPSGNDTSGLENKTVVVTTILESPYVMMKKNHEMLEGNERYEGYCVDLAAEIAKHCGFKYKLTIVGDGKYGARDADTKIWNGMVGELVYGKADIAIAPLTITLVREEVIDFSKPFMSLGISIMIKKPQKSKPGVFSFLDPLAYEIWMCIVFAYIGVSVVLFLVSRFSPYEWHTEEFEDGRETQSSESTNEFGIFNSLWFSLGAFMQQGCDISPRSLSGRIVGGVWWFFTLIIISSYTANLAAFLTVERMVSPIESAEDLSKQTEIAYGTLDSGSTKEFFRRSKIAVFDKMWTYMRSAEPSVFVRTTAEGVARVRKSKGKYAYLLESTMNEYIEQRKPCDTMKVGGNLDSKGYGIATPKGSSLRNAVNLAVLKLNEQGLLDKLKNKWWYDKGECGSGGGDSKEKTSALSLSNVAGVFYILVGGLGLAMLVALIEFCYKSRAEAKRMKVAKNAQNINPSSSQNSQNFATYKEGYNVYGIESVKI

Turning to `Nc1c(Br)cc(Br)cc1CN[C@H]1CC[C@H](O)CC1` [ambroxol, trans-4-(2-amino-3,5-dibromobenzylamino)cyclohexanol], the IC50 in experiment [1] was 35 µM; in experiment [2], above 100 µM. In addition, in experiment [3], the “concentrations that block voltage-dependent calcium channels” value lay within 10 to 1000 µM. Further, the “concentrations that inhibit glutamate-induced membrane currents” value at human GluR1/2 receptors lay within 30 to 1000 µM.
